Key:
Bcl-xL = molecular target: T1, Bcl-xL (Homo sapiens, UniProt Q07817); assay: co-immunoprecipitation: displacement of Bak from endogenous Bcl-xL in REN cells at […]; assay type: cell-based
T1 construct: gene BCL2L1; endogenous Bcl-xL

Mcl-1 = molecular target: T2, Mcl-1 (Homo sapiens, UniProt Q07820); assay: fluorescence polarization competition with FITC-Bak-BH3 peptide, […] Mcl-1 (IC50 […]); supported by co-IP in REN cells; assay type: binding
T2 construct: gene MCL1
T2 sequence (Q07820 whole entry): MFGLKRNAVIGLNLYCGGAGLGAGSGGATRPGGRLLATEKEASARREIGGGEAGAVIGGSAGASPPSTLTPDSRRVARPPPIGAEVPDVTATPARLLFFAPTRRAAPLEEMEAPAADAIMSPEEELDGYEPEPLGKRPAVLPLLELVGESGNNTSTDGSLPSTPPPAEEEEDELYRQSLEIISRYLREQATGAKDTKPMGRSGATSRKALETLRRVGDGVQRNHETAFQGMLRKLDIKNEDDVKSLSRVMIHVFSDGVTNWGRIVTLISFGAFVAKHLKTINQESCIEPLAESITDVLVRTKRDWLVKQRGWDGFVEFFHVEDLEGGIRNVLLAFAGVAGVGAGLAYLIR

T1 sequence (Q07817 whole entry): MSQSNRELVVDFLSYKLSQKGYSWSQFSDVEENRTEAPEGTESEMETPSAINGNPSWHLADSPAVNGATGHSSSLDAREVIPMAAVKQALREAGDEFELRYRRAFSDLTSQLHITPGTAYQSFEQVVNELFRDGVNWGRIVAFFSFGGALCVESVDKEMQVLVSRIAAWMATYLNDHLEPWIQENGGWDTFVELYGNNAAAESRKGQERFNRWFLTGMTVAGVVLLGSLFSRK
T1 sequence (Q16611 2-211 partner): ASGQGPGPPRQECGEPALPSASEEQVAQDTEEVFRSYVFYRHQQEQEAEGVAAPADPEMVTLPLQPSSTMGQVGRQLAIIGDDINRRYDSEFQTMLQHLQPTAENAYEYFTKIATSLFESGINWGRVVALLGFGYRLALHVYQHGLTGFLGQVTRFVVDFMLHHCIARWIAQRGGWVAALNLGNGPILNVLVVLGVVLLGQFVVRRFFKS

CC(C)Oc1cc(C(=O)Nc2ccc(C(=O)Nc3ccc(C(=O)O)cc3OC(C)C)nc2OC(C)C)ccc1N [JY-1-106]
co-immunoprecipitation: displacement of Bak from endogenous Bcl-xL in REN cells (Bcl-xL): JY-1-106 as well as ABT-737 can effectively displace Bak from its inhibitory binding with Bcl-xL
Ki (Mcl-1): 1790 ± 150 nM

— publication PMC3663763, “The novel BH3 α-helix mimetic JY-1-106 induces apoptosis in a subset of cancer cells (lung cancer, colon cancer and mesothelioma) by disrupting Bcl-xL and Mcl-1 protein–protein interactions with Bak” (Molecular Cancer, 2013)
